From publication PMC11062899, “De novo development of small cyclic peptides that are orally bioavailable” (Nature Chemical Biology, 2023)
Values joined by “and” are separate entries in the source; they are usually repeats but may differ in a detail not shown here. Equal entries are not always repeated.

What was measured:
[1] = molecular target: human α-thrombin (Homo sapiens, UniProt P00734); experiment: Protease inhibition, Ki for human α-thrombin (fluorogenic substrate Z-Gly-Gly-Arg-AMC); assay type: biochemical; conditions: replicates R1-R3
How it was run: (§1)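 Ki derived through Cheng–Prusoff from IC50s (four-parameter logistic fit) against activity of peptide-free controls. Product fluorescence was read every 3 min over 30 min at 25 °C, substrate Z-Gly-Gly-Arg-AMC at 50 μM. Enzyme was 2 nM human or 3 nM rat α-thrombin, pH 7.4 buffer.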

[2] = molecular target: T1, rat α-thrombin (Rattus norvegicus, UniProt P18292); experiment: Protease inhibition, Ki for rat α-thrombin (fluorogenic substrate Z-Gly-Gly-Arg-AMC); assay type: biochemical; conditions: replicates R1-R3
T1 construct: rat α-thrombin (Molecular Innovations) were used at final concentrations of 2 nM and 3 nM; purchased Molecular Innovations
How it was run: as §1

[3] = molecular target: T2, porcine pepsin (Sus scrofa, UniProt P00791); experiment: Peptide stability in simulated gastric fluid (SGF); assay type: in vitro ADME
T2 construct: 0.32 g of porcine pepsin (Sigma-Aldrich, P7125) was dissolved under gentle agitation; purchased Sigma-Aldrich P7125
T2 sequence (P00791 60-385): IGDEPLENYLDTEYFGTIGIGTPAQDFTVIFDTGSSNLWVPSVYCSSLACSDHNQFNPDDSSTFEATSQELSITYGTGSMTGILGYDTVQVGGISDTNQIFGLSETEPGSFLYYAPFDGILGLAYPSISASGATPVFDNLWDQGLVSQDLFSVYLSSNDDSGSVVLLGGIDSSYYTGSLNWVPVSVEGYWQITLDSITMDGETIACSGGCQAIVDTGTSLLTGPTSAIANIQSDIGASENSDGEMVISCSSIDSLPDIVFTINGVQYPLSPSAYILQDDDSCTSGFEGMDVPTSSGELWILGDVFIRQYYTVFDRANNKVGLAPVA
Method: (§2) Simulated gastric and intestinal fluids were prepared according to the States Pharmacopeia specifications (Test Solutions, United States Pharmacopeia 35, NF 30, 2012). SGF: 0.2 g of sodium chloride was dissolved in 50 ml of water, and the pH was adjusted to 1.2 by addition of 0.7 ml of 10 M hydrochloric acid. Then, 0.32 g of porcine pepsin (Sigma-Aldrich, P7125) was dissolved under gentle agitation, and the volume was filled up to 100 ml with Milli-Q water. SIF: 0.68 g of monobasic potassium phosphate was dissolved in 25 ml of Milli-Q water, and the pH was adjusted to 6.8 by adding 7.7 ml of a 0.2 M sodium hydroxide solution. Next, 1 g of porcine pancreatin (Sigma-Aldrich, P3292) was added under gentle agitation, and the volume was adjusted to 100 ml with Milli-Q water to afford a fine suspension. To test the stability in simulated gastrointestinal fluids, 396 μl of SGF or SIF was pre-heated at 37 °C for 10 min, and 4 μl of a 1 mM peptide solution in DMSO was added. […] Supernatant was analyzed by LC–MS to measure the peptide concentrations at the different timepoints. Residual peptide was calculated by normalizing the concentrations measured at T1 to T0.

[4] = Peptide stability in simulated intestinal fluid (SIF); assay type: in vitro ADME, porcine; conditions: simulated gi fluid; 8 h, 37 °C, pH 6.8; read-out: Proteolytic stability: SIF (8 h) % remaining
Method: as §2

[5] = system: porcine pancreatin; experiment: as above; assay type: in vitro ADME; conditions: after 8 h vs 0 h (TIC); average of R1-R3
Method: as §2

[6] = Passive artificial membrane permeability (PAMPA)
[7] = Metabolic stability in rat liver microsomes (RLMs); conditions: rat, microsomes
[8] = peptide 1.33E+02 uM, slope of proteolytic substrate cleavage over time

SMILES: C[C@@H]1NC(=O)[C@@H](NC(=O)c2ccc(Cl)s2)CNC(=O)CCSCc2cccc(n2)CSCCNC1=O [compound 18]
- Human alpha thrombin inhibition, slope normalized to DMSO ([1]; peptide 1.02E-03 uM): 93.1 and 89.2 and 94.7
- Human alpha thrombin inhibition, slope normalized to DMSO ([1]; peptide 1.04E+00 uM): 93.7 and 88.7 and 98.8
- Human alpha thrombin inhibition, slope normalized to DMSO ([1]; peptide 1.27E-04 uM): 100.2 and 94.8 and 98.1
- Human alpha thrombin inhibition, slope normalized to DMSO ([1]; peptide 1.30E-01 uM): 94.8 and 90.7 and 96.5
- Human alpha thrombin inhibition, slope normalized to DMSO [1, 8]: 52.1 and 50.8 and 55.1
- Human alpha thrombin inhibition, slope normalized to DMSO ([1]; peptide 1.63E-02 uM): 97.1 and 95.8 and 94.6
- Human alpha thrombin inhibition, slope normalized to DMSO ([1]; peptide 1.67E+01 uM): 73.4 and 68.5 and 72.3
- Human alpha thrombin inhibition, slope normalized to DMSO ([1]; peptide 2.03E-03 uM): 97.3 and 94.1 and 99.2
- Human alpha thrombin inhibition, slope normalized to DMSO ([1]; peptide 2.08E+00 uM): 89.4 and 90.0 and 79.4
- Human alpha thrombin inhibition, slope normalized to DMSO ([1]; peptide 2.54E-04 uM): 98.0 and 92.5 and 94.6
- Human alpha thrombin inhibition, slope normalized to DMSO ([1]; peptide 2.60E-01 uM): 94.5 and 91.9 and 98.0
- Human alpha thrombin inhibition, slope normalized to DMSO ([1]; peptide 3.18E-05 uM): 100.9 and 96.3 and 98.9
- Human alpha thrombin inhibition, slope normalized to DMSO ([1]; peptide 3.26E-02 uM): 93.0 and 91.8 and 94.1
- Human alpha thrombin inhibition, slope normalized to DMSO ([1]; peptide 3.33E+01 uM): 68.4 and 72.8 and 70.8
- Human alpha thrombin inhibition, slope normalized to DMSO ([1]; peptide 4.07E-03 uM): 96.7 and 91.0 and 96.0
- Human alpha thrombin inhibition, slope normalized to DMSO ([1]; peptide 4.17E+00 uM): 85.6 and 83.5 and 84.3
- Human alpha thrombin inhibition, slope normalized to DMSO ([1]; peptide 5.09E-04 uM): 95.1 and 89.7 and 99.5
- Human alpha thrombin inhibition, slope normalized to DMSO ([1]; peptide 5.21E-01 uM): 94.5 and 87.9 and 92.4
- Human alpha thrombin inhibition, slope normalized to DMSO ([1]; peptide 6.36E-05 uM): 96.8 and 88.2 and 100.6
- Human alpha thrombin inhibition, slope normalized to DMSO ([1]; peptide 6.51E-02 uM): 133.7 and 92.1 and 94.3
- Human alpha thrombin inhibition, slope normalized to DMSO ([1]; peptide 6.67E+01 uM): 63.9 and 63.5 and 65.7
- Human alpha thrombin inhibition, slope normalized to DMSO ([1]; peptide 8.14E-03 uM): 96.2 (2×) and 90.9
- Human alpha thrombin inhibition, slope normalized to DMSO ([1]; peptide 8.33E+00 uM): 81.3 and 78.4 and 82.3
- Rat alpha thrombin inhibition, slope normalized to DMSO [2, 8]: 32.2 and 38.1 and 17.4
- Rat alpha thrombin inhibition, slope normalized to DMSO ([2]; peptide 1.67E+01 uM): 45.0 and 46.6 and 55.7
- Rat alpha thrombin inhibition, slope normalized to DMSO ([2]; peptide 2.08E+00 uM): 90.4 and 89.1 and 91.4
- Rat alpha thrombin inhibition, slope normalized to DMSO ([2]; peptide 3.33E+01 uM): 47.9 and 19.5
- Rat alpha thrombin inhibition, slope normalized to DMSO ([2]; peptide 4.17E+00 uM): 77.9 and 77.5 and 82.1
- Rat alpha thrombin inhibition, slope normalized to DMSO ([2]; peptide 6.67E+01 uM): 36.2 and 41.8
- Rat alpha thrombin inhibition, slope normalized to DMSO ([2]; peptide 8.33E+00 uM): 63.0 and 63.5 and 66.0
- SGF stability, Residual peptide Average ([3]; after 8 h vs 0 h (TIC), average of R1-R3): 99.57
- SGF stability, Residual peptide ([3]; after 8 h vs 0 h (TIC), single replicates R1-R3): 102.25 and 97.75 and 98.72
- remaining at 8 h ([3]; simulated gi fluid, 8 h, 37 °C, pH 1.2, read-out: Proteolytic stability: SGF (8 h) % remaining): 100 ± 2%
- remaining at 8 h [4]: 99 ± 9%
- SIF stability, Residual peptide Average [5]: 98.53
- PAMPA permeability: % permeability ([6]; 50 μM, 12–18 h, acceptor concentration relative to equilibrium): 2.73 ± 1.02%
- Papp at 50 μM ([6]; PAMPA, pH 7.4): 0.174 ×10⁻⁶ cm/s
- Permeability% Average ([6]; PAMPA, average of R1-R3): 2.7%
- Permeability% R1 ([6]; PAMPA, replicate R1, TIC of top well sample relative to sample at theoretical equilibrium): 2.77%
- Permeability% R3 ([6]; PAMPA, replicate R3, TIC of top well sample relative to sample at theoretical equilibrium): 1.69%
- microsomal CLint ([7]; CL (ul/min/mg protein) R1, RLM CL, replicate R1): 117 µL/min/mg
- microsomal CLint ([7]; CL (ul/min/mg protein) R2, RLM CL, replicate R2): 96.6 µL/min/mg
- microsomal CLint ([7]; CL (ul/min/mg protein) R3, RLM CL, replicate R3): 95.7 µL/min/mg
- half-life ([7]; Half Life (min) R1, RLM metabolic stability, replicate R1, 0-60 min): 11.8 min
- half-life ([7]; Half Life (min) R2, RLM metabolic stability, replicate R2, 0-60 min): 14.3 min
- half-life ([7]; Half Life (min) R3, RLM metabolic stability, replicate R3, 0-60 min): 14.5 min
- half-life ([7]; Metabolic stability: Half life T1/2 (min), RLMs, mean and SD, three measurements): 13.5 ± 1.2 min
- microsomal CLint ([7]; Metabolic stability: RLM CL (ul/min/mg), RLMs, mean and SD, three measurements): 103 ± 10 µL/min/mg
